Laboratory results from PubChem BioAssay AID2060886 (Molecular Pharmacology Branch, DTP, NCI, 2025).
Where “and” joins values, the source holds several entries; their conditions need not be identical. Equal values may be shown once.

Tested on: 653999-131-R-J2-PDC complex spheroids, growth inhibition
Assay: Anticancer human tumor 653999-131-R-J2-PDC patient-derived lung adenocarcinoma cell line growth inhibition [RAS]
Conditions: for viability, T/C: stronger effect = lower value
Procedure, shortened: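 Multi-cell-type spheroids: tumor cells plus HUVEC endothelial cells and mesenchymal stem cells. RAS-pathway inhibitors were combined with targeted agents, each dosed in half-log steps down from clinical Cmax, or from 10 microM when Cmax was unknown.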
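Further: spheroids exposed to the agents for seven days before the readout.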

## CC1(C)CCC(Nc2ncc(C(F)(F)F)c(-c3c[nH]c4c(P(C)(C)=O)c(C#N)ccc34)n2)CN1 (stereo not drawn) + CCn1c(-c2cccnc2C(C)OC)c2c3cc(ccc31)N1CCOC(CC(NC(=O)C(C(C)C)N(C)C(=O)C3(F)CCN(C(=O)C#CC(C)(C)N(C)C)CC3)C(=O)N3CCCC(N3)C(=O)OCC(C)(C)C2)C1
Curve of first compound, second compound 0.000949 µM
  IC50: > 300 nM
Curve of first compound, second compound 0.003 µM
  IC50: > 300 nM
Curve of first compound, second compound 0.00949 µM
  IC50: > 300 nM
Curve of first compound, second compound 0.03 µM
  IC50: > 300 nM
Curve of first compound, second compound 0.0949 µM
  IC50: > 300 nM
Curve of first compound, second compound 0.3 µM
  IC50: > 300 nM
Second compound 0.000949 µM, first compound 0.000949 µM
  viability, T/C: 89.4%
Second compound 0.000949 µM, first compound 0.003 µM
  viability, T/C: 82.6%
Second compound 0.000949 µM, first compound 0.00949 µM
  viability, T/C: 81.1%
Second compound 0.000949 µM, first compound 0.03 µM
  viability, T/C: 79.7%
Second compound 0.000949 µM, first compound 0.0949 µM
  viability, T/C: 84.6%
Second compound 0.000949 µM, first compound 0.3 µM
  viability, T/C: 71.6%
Second compound 0.003 µM, first compound 0.000949 µM
  viability, T/C: 96%
Second compound 0.003 µM, first compound 0.003 µM
  viability, T/C: 84.2%
Second compound 0.003 µM, first compound 0.00949 µM
  viability, T/C: 79.5%
Second compound 0.003 µM, first compound 0.03 µM
  viability, T/C: 77.7%
Second compound 0.003 µM, first compound 0.0949 µM
  viability, T/C: 84.9%
Second compound 0.003 µM, first compound 0.3 µM
  viability, T/C: 71.2%
Second compound 0.00949 µM, first compound 0.000949 µM
  viability, T/C: 99.5%
Second compound 0.00949 µM, first compound 0.003 µM
  viability, T/C: 89.3%
Second compound 0.00949 µM, first compound 0.00949 µM
  viability, T/C: 84.9%
Second compound 0.00949 µM, first compound 0.03 µM
  viability, T/C: 72%
Second compound 0.00949 µM, first compound 0.0949 µM
  viability, T/C: 79.3%
Second compound 0.00949 µM, first compound 0.3 µM
  viability, T/C: 87.2%
Second compound 0.03 µM, first compound 0.000949 µM
  viability, T/C: 85.4%
Second compound 0.03 µM, first compound 0.003 µM
  viability, T/C: 83.9%
Second compound 0.03 µM, first compound 0.00949 µM
  viability, T/C: 71%
Second compound 0.03 µM, first compound 0.03 µM
  viability, T/C: 74.1%
Second compound 0.03 µM, first compound 0.0949 µM
  viability, T/C: 77.4%
Second compound 0.03 µM, first compound 0.3 µM
  viability, T/C: 76.9%
Second compound 0.0949 µM, first compound 0.000949 µM
  viability, T/C: 80.4%
Second compound 0.0949 µM, first compound 0.003 µM
  viability, T/C: 66.8%
Second compound 0.0949 µM, first compound 0.00949 µM
  viability, T/C: 67.5%
Second compound 0.0949 µM, first compound 0.03 µM
  viability, T/C: 68%
Second compound 0.0949 µM, first compound 0.0949 µM
  viability, T/C: 74%
Second compound 0.0949 µM, first compound 0.3 µM
  viability, T/C: 70.3%
Second compound 0.3 µM, first compound 0.000949 µM
  viability, T/C: 82.3%
Second compound 0.3 µM, first compound 0.003 µM
  viability, T/C: 71.7%
Second compound 0.3 µM, first compound 0.00949 µM
  viability, T/C: 63.8%
Second compound 0.3 µM, first compound 0.03 µM
  viability, T/C: 63.9%
Second compound 0.3 µM, first compound 0.0949 µM
  viability, T/C: 70.8%
Second compound 0.3 µM, first compound 0.3 µM
  viability, T/C: 64.5%

## C=CC(=O)Nc1cc(Nc2nccc(-c3cn(C)c4ccccc34)n2)c(OC)cc1N(C)CCN(C)C
Compound 0.00316 µM
  viability, T/C: 98% [middle of 4 runs]
Compound 0.01 µM
  viability, T/C: 89.8% [middle of 4 runs]
Compound 0.0316 µM
  viability, T/C: 94.7% [middle of 4 runs]
Compound 1 µM
  viability, T/C: 62.9% [middle of 4 runs]
Curve of compound
  IC50: > 1000 nM and 291 nM

## CCn1c(-c2cccnc2C(C)OC)c2c3cc(ccc31)N1CCOC(CC(NC(=O)C(C(C)C)N(C)C(=O)C3(F)CCN(C(=O)C#CC(C)(C)N(C)C)CC3)C(=O)N3CCCC(N3)C(=O)OCC(C)(C)C2)C1 (stereo not drawn)
Compound 0.003 µM
  viability, T/C: 95.1% [middle of 8 runs]
Compound 0.00949 µM
  viability, T/C: 99.5% [middle of 8 runs]
Compound 0.03 µM
  viability, T/C: 104% [middle of 8 runs]
Compound 0.0949 µM
  viability, T/C: 99.9% [middle of 8 runs]
Compound 0.3 µM
  viability, T/C: 107% [middle of 8 runs]
Compound alone, run of 08/20/2024
  IC50: > 300 nM
